Results published in PMC5912893 (Journal of medicinal chemistry, 2018).

Legend:
purified tubulin = purified tubulin (Sus scrofa, UniProt P02550+P02554); experiment: Cell-free microtubule polymerization assay; type: biochemical, porcine; conditions: tubulin 3.33 mg/mL, absorbance 340 nm, 37 °C, 50 min
PC-3/TxR xenograft = experiment: Paclitaxel resistant PC-3/TxR prostate cancer xenograft model in nude mice; type: in vivo; conditions: for effect on tumor growth (in words): vs vehicle
A375, M14, and RPMI7951 = experiment: Cytotoxic activity against three human malignant melanoma cell lines; conditions: read-out: IC50 (approximate, three melanoma cell lines)
WM164 melanoma cells = experiment: Confocal immunofluorescent microscopy of microtubule networks; type: cell-based, human; conditions: 100 nM, 18 h
A375 xenograft = experiment: A375 melanoma xenograft model in nude mice; type: in vivo; conditions: for apoptosis in tumors (cleaved caspase 3 IHC): IHC staining
RPMI7951 = experiment: Wound healing assay, RPMI7951 cells; type: cell-based, human; conditions: 18 h, untreated control 71.8%
PC-3 xenograft = conditions: nude mice

Sequence of purified tubulin (P02554 whole entry): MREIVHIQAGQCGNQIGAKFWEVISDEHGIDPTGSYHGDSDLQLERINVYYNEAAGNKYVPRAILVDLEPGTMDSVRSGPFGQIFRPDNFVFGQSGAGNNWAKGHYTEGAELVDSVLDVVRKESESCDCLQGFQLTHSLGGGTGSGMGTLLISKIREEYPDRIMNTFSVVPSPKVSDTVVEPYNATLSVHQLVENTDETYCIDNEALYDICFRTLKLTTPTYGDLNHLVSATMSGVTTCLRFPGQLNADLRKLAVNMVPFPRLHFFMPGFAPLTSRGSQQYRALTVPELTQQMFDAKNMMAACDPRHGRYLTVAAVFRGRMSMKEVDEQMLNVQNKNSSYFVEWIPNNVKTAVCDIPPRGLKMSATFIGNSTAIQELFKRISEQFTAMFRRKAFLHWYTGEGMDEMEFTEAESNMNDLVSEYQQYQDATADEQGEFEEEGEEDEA
Sequence of purified tubulin (P02550 whole entry): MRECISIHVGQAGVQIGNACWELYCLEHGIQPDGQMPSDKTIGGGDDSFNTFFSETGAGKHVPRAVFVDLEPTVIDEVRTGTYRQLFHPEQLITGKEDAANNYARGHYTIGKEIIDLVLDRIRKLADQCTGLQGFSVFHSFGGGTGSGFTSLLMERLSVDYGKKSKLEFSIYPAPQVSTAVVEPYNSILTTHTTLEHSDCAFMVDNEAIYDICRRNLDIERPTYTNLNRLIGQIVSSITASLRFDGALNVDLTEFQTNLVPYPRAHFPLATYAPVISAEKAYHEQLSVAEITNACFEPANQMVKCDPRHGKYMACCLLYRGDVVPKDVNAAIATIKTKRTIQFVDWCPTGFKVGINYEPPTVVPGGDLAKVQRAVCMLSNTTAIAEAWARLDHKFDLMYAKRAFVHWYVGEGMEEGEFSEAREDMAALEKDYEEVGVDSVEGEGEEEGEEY

SMILES	effect on tubulin polymerization (purified tubulin)	IC50 (A375, M14, and RPMI7951) [nM]	microvessel density in tumors (CD31 staining) (A375 xenograft)	apoptosis in tumors (cleaved caspase 3 IHC) (A375 xenograft)	also measured
COc1ccc2c(c1)CCCN2c1nc(Cl)nc2ncccc12 [4a, 2-Chloro-4-(6-methoxy-3,4-dihydroquinolin-1(2H)-yl)pyrido-[2,3-d]pyrimidine]	effectively inhibited tubulin polymerization in a dose-dependent manner	~6	less microvessel density	increase in the number of cells undergoing apoptosis	effect on tumor growth (in words) (PC-3/TxR xenograft): significant decrease in tumor volume; effect on microtubule networks (WM164 melanoma cells): causes fragmentation of the microtubules, decreases polymeric tubulin filaments, and increases cytoplasmic soluble tubulin
COc1ccc2c(c1)CCCN2c1nc(Cl)nc2ccoc12 [6a, 2-Chloro-4-(6-methoxy-3,4-dihydroquinolin-1(2H)-yl)furo[3,2-d]pyrimidine]	effectively inhibited tubulin polymerization in a dose-dependent manner	~3	less microvessel density	increase in the number of cells undergoing apoptosis	–
COc1ccc(N(C)c2nc(Cl)nc3ncccc23)cc1OC [21a, 2-Chloro-N-(3,4-dimethoxyphenyl)-N-methylpyrido[2,3-d]-pyrimidin-4-amine]	–	45	–	–	–
COc1cc2c(c(OC)c1OC)-c1ccc(OC)c(=O)cc1[C@@H](NC(C)=O)CC2 [colchicine]	–	–	–	–	wound closure, RPMI7951, 5 nM (RPMI7951): a significant decrease in migration was not observed
COc1ccc2c(c1)C(O)CCN2c1nc(Cl)nc2ncccc12 (stereo not drawn) [compound 17, 1-(2-Chloropyrido[2,3-d]pyrimidin-4-yl)-6-methoxy-1,2,3,4-tetrahydroquinolin-4-ol]	–	~30	–	–	–
COc1ccc2c(c1)OCCN2c1nc(Cl)nc2ncccc12 [compound 19, 4-(2-Chloropyrido[2,3-d]pyrimidin-4-yl)-7-methoxy-3,4-dihydro-2H-benzo[b][1,4]oxazine]	–	298	–	–	–
CC(=O)O[C@@]12CO[C@@H]1C[C@H](O)[C@@]1(C)C(=O)[C@H](O)C3=C(C)[C@@H](OC(=O)[C@H](O)[C@@H](NC(=O)OC(C)(C)C)c4ccccc4)C[C@@](O)([C@@H](OC(=O)c4ccccc4)[C@H]21)C3(C)C [docetaxel, reference compound]	–	–	–	–	effect on microtubule networks (WM164 melanoma cells): dense tubulin accretion, representative of aggressive polymerization
CC(=O)O[C@H]1C(=O)[C@@]2(C)[C@H]([C@H](OC(=O)c3ccccc3)[C@]3(O)C[C@H](OC(=O)[C@H](O)[C@@H](NC(=O)c4ccccc4)c4ccccc4)C(C)=C1C3(C)C)[C@]1(OC(C)=O)CO[C@@H]1C[C@@H]2O [paclitaxel, reference compound]	greatest polymerization	–	less microvessel density	increase in the number of cells undergoing apoptosis	susceptibility of nonresistant tumors to treatment (PC-3 xenograft): highly susceptible; mouse body weight (PC-3/TxR xenograft): began to drop considerably after 2 weeks of treatment; effect on tumor growth (in words) (PC-3/TxR xenograft): no difference in tumor growth
